Laboratory results taken from patent US8394770B2 (priority 2007, dated 2013).
Values joined by “and” are separate entries in the source; they are usually repeats but may differ in a detail not shown here. Equal entries are not always repeated. “Also recorded” adds a separate entry of the source.

Columns and labels:
rKv2.1 = biological target: T1, rKv2.1 (Rattus norvegicus, UniProt P15387); assay: Patch-clamp block of rKv2.1 channels expressed in Cos-7 cells; conditions: 10 nM
T1 sequence (P15387 1-857): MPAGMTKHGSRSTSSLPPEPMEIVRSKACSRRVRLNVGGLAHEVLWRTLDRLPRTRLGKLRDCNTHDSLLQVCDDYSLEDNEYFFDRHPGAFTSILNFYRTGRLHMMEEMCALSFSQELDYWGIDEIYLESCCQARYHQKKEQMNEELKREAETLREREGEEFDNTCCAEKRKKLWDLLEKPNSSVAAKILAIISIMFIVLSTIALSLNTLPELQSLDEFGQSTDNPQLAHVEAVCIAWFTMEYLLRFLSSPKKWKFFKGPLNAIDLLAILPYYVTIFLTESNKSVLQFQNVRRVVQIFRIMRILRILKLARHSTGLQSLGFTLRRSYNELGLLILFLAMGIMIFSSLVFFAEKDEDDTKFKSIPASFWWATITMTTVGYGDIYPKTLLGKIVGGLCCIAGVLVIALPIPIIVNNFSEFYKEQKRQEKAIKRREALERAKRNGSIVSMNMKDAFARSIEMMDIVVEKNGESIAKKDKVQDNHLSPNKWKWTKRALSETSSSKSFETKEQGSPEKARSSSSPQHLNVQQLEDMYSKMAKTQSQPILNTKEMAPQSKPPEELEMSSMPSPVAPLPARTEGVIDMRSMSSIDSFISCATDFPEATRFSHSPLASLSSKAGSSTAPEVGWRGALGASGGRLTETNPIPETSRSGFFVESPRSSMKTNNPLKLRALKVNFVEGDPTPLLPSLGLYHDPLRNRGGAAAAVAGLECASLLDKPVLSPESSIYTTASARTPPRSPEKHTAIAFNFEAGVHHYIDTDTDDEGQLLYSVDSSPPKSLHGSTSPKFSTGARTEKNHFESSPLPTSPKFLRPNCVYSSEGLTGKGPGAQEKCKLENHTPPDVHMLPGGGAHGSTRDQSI

mKv1.1 = mKv1.1 (Mus musculus, UniProt P16388); assay: Patch-clamp block of mKv1.1 channels stably expressed in L929 cells; conditions: for remaining current fraction (RCF) mKv1.1: n=3
mKv1.1, sequence (P16388 whole entry): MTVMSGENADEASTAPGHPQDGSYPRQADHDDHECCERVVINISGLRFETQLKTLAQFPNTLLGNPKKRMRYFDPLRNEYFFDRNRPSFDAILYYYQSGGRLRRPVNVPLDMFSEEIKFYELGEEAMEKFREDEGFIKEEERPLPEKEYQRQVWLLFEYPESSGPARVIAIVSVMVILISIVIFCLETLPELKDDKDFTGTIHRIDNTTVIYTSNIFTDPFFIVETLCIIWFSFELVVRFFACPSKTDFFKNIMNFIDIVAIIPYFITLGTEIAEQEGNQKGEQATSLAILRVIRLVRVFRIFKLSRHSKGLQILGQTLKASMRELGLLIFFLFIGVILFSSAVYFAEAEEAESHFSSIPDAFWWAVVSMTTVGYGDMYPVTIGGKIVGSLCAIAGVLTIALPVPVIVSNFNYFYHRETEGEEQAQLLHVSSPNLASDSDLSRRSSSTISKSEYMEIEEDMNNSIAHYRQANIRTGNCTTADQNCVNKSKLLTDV

hKv1.5 = hKv1.5 (Homo sapiens, UniProt P22460); assay: Patch-clamp block of hKv1.5 channels stably expressed in MEL cells; conditions: 10 nM
hKv1.5, sequence (P22460 whole entry): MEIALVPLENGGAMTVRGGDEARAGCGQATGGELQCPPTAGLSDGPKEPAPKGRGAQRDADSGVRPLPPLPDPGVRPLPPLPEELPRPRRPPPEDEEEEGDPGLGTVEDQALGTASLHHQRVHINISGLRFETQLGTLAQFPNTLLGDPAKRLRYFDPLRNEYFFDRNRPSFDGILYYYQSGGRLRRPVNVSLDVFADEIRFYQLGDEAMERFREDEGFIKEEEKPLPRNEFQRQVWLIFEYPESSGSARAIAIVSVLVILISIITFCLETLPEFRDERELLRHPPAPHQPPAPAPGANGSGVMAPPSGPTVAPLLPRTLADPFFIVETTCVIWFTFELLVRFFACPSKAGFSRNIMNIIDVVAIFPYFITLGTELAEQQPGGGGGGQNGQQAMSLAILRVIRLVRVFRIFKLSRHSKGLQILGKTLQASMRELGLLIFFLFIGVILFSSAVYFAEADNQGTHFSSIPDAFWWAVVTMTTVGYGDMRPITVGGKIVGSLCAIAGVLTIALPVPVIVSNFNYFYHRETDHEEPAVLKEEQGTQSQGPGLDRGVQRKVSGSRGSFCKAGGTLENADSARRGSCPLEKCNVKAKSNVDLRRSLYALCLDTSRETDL

hNaV1.5 = hNaV1.5 (Homo sapiens, UniProt Q14524); assay: Patch-clamp block of cardiac voltage-gated Na+ channel NaV1.5 expressed in Cos-7 cells; conditions: 10 nM
mice = assay: In vivo toxicity / lethality test by injection into mice; conditions: injected
rats = assay: Delayed-type hypersensitivity (DTH) response in DNFB-sensitized rats, ear thickness; assay type: in vivo, rat; conditions: single dose of 10 micrograms, 24 hours
Source text: In order to perform this kind of experiment we set up a protocol to study DTH response in rats. The system used is basically that described by Phanuphak et al., 1974. In brief, two groups of rats (3 or 5 animals each) were sensitized by applications of 40 microliters of 0.7% DNFB in 4:1 proportion of acetone: olive oil solution, in two consecutive days (days one and two), after gentle shaving of the dorsal-back region of the animals. After 7 days of the second application of the sensitizing solution, the animals were challenged by a single application of 20 microliter of 0.4% DNFB dissolved in the acetone: olive oil solution described above. This solution was spread over the dorsal surface of the right-side ears and allowed to dry, whereas the left-side ears were spread with only the vehicle solution (acetone:olive oil). On day eight of the protocol, a subcutaneous injection of 100 microliter of phosphate saline buffer pH 7.8 (PBS) was applied to each one of the animals used as control, whereas to the experimental group of rats, an amount of 10 micrograms pure Vm24 in 100 microliters PBS was subcutaneously applied. The thickness of both ears of all animals was measured 24 hours after of the application of Vm24.

hERG channel = hERG channel (Homo sapiens, UniProt Q12809); assay: Patch-clamp block of hERG channels stably expressed in HEK-293 cells; conditions: 10 nM
hERG channel, sequence (Q12809 whole entry): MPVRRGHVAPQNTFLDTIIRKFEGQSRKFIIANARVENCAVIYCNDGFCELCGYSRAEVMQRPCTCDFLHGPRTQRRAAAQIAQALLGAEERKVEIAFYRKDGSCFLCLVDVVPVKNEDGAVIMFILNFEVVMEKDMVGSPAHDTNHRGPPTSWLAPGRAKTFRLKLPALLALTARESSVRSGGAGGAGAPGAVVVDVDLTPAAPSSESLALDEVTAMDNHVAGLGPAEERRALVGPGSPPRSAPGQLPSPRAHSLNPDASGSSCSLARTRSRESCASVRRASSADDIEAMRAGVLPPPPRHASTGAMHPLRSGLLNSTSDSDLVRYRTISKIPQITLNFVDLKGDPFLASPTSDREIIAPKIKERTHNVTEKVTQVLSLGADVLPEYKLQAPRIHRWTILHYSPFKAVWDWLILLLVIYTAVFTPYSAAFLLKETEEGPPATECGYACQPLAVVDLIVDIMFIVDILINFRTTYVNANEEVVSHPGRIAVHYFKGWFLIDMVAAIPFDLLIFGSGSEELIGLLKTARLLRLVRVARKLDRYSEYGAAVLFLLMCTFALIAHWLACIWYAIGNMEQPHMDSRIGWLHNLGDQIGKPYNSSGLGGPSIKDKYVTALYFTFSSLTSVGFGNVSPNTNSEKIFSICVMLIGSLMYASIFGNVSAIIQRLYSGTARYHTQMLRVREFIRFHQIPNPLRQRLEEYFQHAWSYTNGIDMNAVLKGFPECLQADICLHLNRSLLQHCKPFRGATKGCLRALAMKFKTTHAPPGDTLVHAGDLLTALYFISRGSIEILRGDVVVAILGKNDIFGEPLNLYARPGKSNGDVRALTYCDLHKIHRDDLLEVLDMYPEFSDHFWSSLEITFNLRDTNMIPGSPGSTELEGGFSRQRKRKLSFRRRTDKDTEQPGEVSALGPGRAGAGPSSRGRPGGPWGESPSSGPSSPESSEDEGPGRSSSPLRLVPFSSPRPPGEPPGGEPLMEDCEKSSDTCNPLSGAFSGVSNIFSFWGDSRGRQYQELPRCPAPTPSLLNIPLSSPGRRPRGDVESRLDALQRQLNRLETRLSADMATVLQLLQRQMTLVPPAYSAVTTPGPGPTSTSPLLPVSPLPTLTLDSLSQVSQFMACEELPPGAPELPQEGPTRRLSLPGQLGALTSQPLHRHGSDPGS

hBK (KCa1.1) = hBK (KCa1.1) (Homo sapiens, UniProt Q12791); assay: Patch-clamp block of hBK (KCa1.1) channels expressed in tsA-201 cells; conditions: 10 nM
hKv1.2 = hKv1.2 (Homo sapiens, UniProt P16389); assay: Patch-clamp block of hKv1.2 channels expressed in Cos-7 cells; conditions: for remaining current fraction (RCF) hKv1.2: n=3
hKv1.2, sequence (P16389 whole entry): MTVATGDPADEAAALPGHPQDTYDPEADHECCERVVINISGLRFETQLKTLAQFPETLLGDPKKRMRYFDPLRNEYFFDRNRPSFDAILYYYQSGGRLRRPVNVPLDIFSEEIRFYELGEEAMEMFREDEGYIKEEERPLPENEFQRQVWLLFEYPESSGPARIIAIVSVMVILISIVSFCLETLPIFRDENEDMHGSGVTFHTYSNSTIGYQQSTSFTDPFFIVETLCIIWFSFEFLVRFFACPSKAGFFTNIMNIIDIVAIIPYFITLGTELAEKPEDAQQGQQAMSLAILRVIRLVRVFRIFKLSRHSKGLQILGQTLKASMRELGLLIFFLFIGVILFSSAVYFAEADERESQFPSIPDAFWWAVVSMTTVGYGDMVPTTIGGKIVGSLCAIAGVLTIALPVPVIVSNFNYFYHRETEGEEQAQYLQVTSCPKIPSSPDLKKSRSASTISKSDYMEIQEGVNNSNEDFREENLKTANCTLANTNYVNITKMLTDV

hKv1.3 channels = hKv1.3 channels (Homo sapiens, UniProt P22001); assay: Whole-cell patch-clamp block of hKv1.3 channels endogenously expressed in human peripheral blood T cells; assay type: cell-based; parameters: channels expressed endogenously in human peripheral blood T cells; endogenous in cells; host or cells: human peripheral blood T lymphocytes from healthy volunteers, PHA-stimulated
hKv1.3 channels, sequence (P22001 whole entry): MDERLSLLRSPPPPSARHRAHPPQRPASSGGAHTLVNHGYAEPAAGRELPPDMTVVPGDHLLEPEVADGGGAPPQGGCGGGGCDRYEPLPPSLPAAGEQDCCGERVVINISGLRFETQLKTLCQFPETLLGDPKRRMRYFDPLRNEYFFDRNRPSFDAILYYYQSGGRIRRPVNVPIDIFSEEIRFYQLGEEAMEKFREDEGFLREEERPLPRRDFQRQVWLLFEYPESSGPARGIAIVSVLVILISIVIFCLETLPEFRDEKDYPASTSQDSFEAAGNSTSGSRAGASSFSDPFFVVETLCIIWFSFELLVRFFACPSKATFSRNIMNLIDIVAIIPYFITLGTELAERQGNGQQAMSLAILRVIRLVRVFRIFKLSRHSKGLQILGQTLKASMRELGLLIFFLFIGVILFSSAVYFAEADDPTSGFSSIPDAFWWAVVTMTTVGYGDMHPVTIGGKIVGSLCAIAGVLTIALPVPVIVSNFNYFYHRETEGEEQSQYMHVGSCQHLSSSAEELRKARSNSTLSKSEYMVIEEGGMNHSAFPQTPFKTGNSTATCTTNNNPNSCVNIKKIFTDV

hIKCa1 = hIKCa1 (Homo sapiens, UniProt O15554); assay: Patch-clamp block of recombinant hIKCa1 channels expressed in Cos-7 cells (voltage ramps)
hIKCa1, sequence (O15554 whole entry): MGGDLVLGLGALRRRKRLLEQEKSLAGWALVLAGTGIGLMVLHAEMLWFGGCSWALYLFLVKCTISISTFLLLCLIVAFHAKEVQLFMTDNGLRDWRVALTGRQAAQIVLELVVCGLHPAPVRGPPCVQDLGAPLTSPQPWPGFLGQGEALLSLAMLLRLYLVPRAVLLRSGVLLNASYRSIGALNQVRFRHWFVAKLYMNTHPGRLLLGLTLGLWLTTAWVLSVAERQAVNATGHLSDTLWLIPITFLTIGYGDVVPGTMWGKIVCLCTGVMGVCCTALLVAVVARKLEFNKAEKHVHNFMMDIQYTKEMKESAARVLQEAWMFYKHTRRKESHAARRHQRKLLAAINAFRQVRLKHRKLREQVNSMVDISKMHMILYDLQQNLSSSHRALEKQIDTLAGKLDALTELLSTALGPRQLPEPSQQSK

hKv1.4 = hKv1.4 (Homo sapiens, UniProt P22459); assay: Patch-clamp block of fast inactivation-removed hKv1.4 (Kv1.4ΔN) channels in Cos-7 cells; conditions: 10 nM
hKv1.4, sequence (P22459 148-653): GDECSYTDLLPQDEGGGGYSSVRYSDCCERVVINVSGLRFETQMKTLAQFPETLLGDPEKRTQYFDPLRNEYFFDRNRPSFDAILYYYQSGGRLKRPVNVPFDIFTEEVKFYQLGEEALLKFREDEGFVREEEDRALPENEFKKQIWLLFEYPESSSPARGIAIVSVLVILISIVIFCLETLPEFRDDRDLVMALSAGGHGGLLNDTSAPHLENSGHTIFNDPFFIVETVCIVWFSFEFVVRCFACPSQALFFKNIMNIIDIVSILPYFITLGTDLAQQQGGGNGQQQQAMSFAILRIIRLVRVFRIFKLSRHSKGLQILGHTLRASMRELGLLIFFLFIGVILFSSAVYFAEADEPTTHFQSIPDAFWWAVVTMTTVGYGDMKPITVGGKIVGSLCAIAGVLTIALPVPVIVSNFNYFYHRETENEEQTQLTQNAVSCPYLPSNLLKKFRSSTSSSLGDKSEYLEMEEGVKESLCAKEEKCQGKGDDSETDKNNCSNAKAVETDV

With `CC[C@H](C)[C@H](NC(=O)[C@H](C)NC(=O)[C@H](C)NC(=O)[C@H](C)N)C(=O)N[C@@H](CO)C(=O)N[C@H]1CSSC[C@@H]2NC(=O)[C@H](CCCCN)NC(=O)CNC(=O)[C@H](CC(N)=O)NC(=O)[C@H](CCCCN)NC(=O)[C@@H]3CSSC[C@@H](C(N)=O)NC(=O)[C@H](Cc4ccc(O)cc4)NC(=O)[C@H](Cc4ccc(O)cc4)NC(=O)[C@@H]4CSSC[C@H](NC(=O)[C@H](CCCCN)NC(=O)[C@@H]5CCCN5C(=O)[C@@H]5CCCN5C(=O)[C@H](CSSC[C@H](NC(=O)[C@H](CCCCN)NC(=O)[C@H](CCCNC(=N)N)NC(=O)[C@H](CC(N)=O)NC(=O)[C@H](CCSC)NC2=O)C(=O)N[C@@H](CCCCN)C(=O)N4)NC(=O)[C@H](CCC(=O)O)NC(=O)[C@@H]2CCCN2C(=O)[C@H](CO)NC(=O)CNC(=O)[C@H](C(C)C)NC1=O)C(=O)N[C@@H](CCCNC(=N)N)C(=O)N[C@@H](C)C(=O)N[C@@H](CCC(N)=O)C(=O)NCC(=O)N3` [Vm24] as the molecule, how does the “effect on rKv2.1 current” value (rKv2.1) read?
The value was “lack of blockade; also recorded: does not modify”.

What about the Kd (mKv1.1) of the same molecule?
The Kd was 30 to 40 nM.

And the “selectivity for hKv1.3 over mKv1.1” value (mKv1.1)?
The value was no less than 10000 fold.

And the “remaining current fraction (RCF) mKv1.1” value (mKv1.1; 1 nM)?
Its value is 0.97±0.02.

What about the “time for equilibrium block of mKv1.1 to develop” value (mKv1.1; 10 nM) of the same molecule?
The value was 6 min.

And the “remaining current fraction (RCF) mKv1.1” value (mKv1.1; 10 nM)?
The value was 0.80±0.02.

What about the inhibition at 0.01 µM (mKv1.1; L929, read-out: current inhibition mKv1.1) of the same molecule?
The inhibition at 0.01 µM was 20 to 50%.

And the “effect on hKv1.5 current” value (hKv1.5)?
Its value is “practically insensitive; also recorded: does not modify”.

And the “effect on NaV1.5 current” value (hNaV1.5)?
Its value is “lack of blockade; also recorded: does not modify”.

What about the “toxicity / symptoms of intoxication in mice” value (mice; up to 200 microgram per mouse of 20 grams (10,000 microgram/kilogram)) of the same molecule?
The value was “not toxic; also recorded: no observable symptoms of intoxication”.

What about the “toxicity in experimental animals” value (mice; up to 10,000 microgram per 20 gram mouse weight (so in the source)) of the same molecule?
Its value is “not toxic”.

What about the “inflammation of the ear (thickness, unchallenged ear subtracted)” value (rats) of the same molecule?
The value was “no more than 0.10 mm”.

What about the “effect on hERG current” value (hERG channel) of the same molecule?
The value was “lack of blockade; also recorded: does not modify”.

And the “effect on hBK current” value (hBK (KCa1.1))?
The value was “lack of blockade; also recorded: does not modify”.

What about the Kd (hKv1.2) of the same molecule?
Its Kd is 5 to 10 nM.

What about the “selectivity for hKv1.3 over hKv1.2” value (hKv1.2) of the same molecule?
The value was no less than 1500 fold.

And the “remaining current fraction (RCF) hKv1.2” value (hKv1.2; 1 nM)?
Its value is 0.81±0.015.

And the “time for equilibrium block of hKv1.2 to develop” value (hKv1.2; 10 nM)?
The value was 5.5 min.

What about the “remaining current fraction (RCF) hKv1.2” value (hKv1.2; 10 nM) of the same molecule?
Its value is 0.54±0.08.

And the “reversibility of hKv1.2 block” value (hKv1.2; after 10 nM, wash-out)?
Its value is “not fully reversible”.

And the “block of hKv1.3 current” value (hKv1.3 channels; 3 pM)?
Its value is “over 50%”.

What about the “level at which loss of current saturates, % of the peak recorded in control solution” value (hKv1.3 channels; 3 pM, 10.5-minute application) of the same molecule?
The value was roughly 36%.

And the “block of hKv1.3 current (words)” value (hKv1.3 channels; 0.3 nM)?
Its value is “full block”.

And the “block of hKv1.3 current (words)” value (hKv1.3 channels; 1 nM)?
The value was “completely disappeared; also recorded: full block; also recorded: blocks hKv1.3 channels completely; also recorded: almost completely blocked”.

What about the “blockage of hKv1.3 current” value (hKv1.3 channels; 10 nM) of the same molecule?
The value was 100%.

And the “time for equilibrium block of hKv1.3 to develop” value (hKv1.3 channels; 10 nM)?
The value was 3.5 min.

What about the “remaining current fraction (RCF) hKv1.3” value (hKv1.3 channels; 10 nM, mean±SEM, n=3) of the same molecule?
The value was 0.01±0.01.

What about the “fraction of blocked hKv1.3 current recovered” value (hKv1.3 channels; 30 minute washout after 3 pM) of the same molecule?
The value was “one third”.

What about the Hill coefficient n (hKv1.3 channels; dose-response fit, hKv1.3) of the same molecule?
The Hill coefficient n was roughly 1.

And the Kd (hKv1.3 channels; fit of dose-response of remaining current fraction, human T cells, stated to be an overestimate of the real Kd, read-out: Kd (dissociation constant) for hKv1.3)?
The Kd was 0.0029 nM and < 0.003 nM.

And the off rate (hKv1.3 channels; from wash-out time constant after 3 pM)?
The off rate was roughly 0.00026 s⁻¹.

And the Kd (hIKCa1)?
The Kd was roughly 14 nM.

And the “selectivity for hKv1.3 over hIKCa1” value (hIKCa1)?
The value was no less than 4500 fold.

What about the “block of hIKCa1” value (hIKCa1; 1 nM) of the same molecule?
The value was “practically does not blocks”.

And the “time to reach equilibrium block of hIKCa1” value (hIKCa1; 10 nM)?
Its value is 4.5 min.

What about the inhibition at 0.01 µM (hIKCa1; COS-7, read-out: current inhibition hIKCa1, 10 nM) of the same molecule?
The inhibition at 0.01 µM was roughly 40%.

And the remaining activity at 0.01 µM (hIKCa1; COS-7, read-out: slope s of current-voltage relationship, % of control)?
The remaining activity at 0.01 µM was roughly 52%.

And the “reversal of hIKCa1 block on wash-out” value (hIKCa1; after 10 nM, in 2.5 min toxin-free solution)?
Its value is “fully reversed”.

What about the “effect on hKv1.4 current” value (hKv1.4) of the same molecule?
Its value is “practically insensitive; also recorded: does not modify”.
